From US8192962B2, “Processes for detecting toxic substances” (Daikin Industries, Ltd., priority 2001, dated 2012) come the findings set out here.

In this experiment the test system is Transport facilitation protein genes. Briefly: DNA chip mRNA expression in yeast, transport facilitation protein genes (Table 5). In kind it is cell-based, Saccharomyces cerevisiae S288C. Summed up:
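Values are treated/untreated fluorescence ratios from a whole-genome yeast DNA chip hybridized over 12 hours at 65° C with Cy3- or Cy5-labelled cDNA from poly(A) mRNA. Log-phase S288C yeast in YPD at 25° C had received a single toxic chemical for two hours, dosed to slow growth without killing.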

Consider `C[S+](C)[O-]` [(15), dimethylsulfoxide], for which the “The level of expressed mRNA in the presence of chemical substance/The level of expressed mRNA in the absence of chemical substance” value reads like this: (yeast gene YBR052C) 0.7; (yeast gene YIL022W) 2.9; (yeast gene YKL016C) 0.7; (yeast gene YLR081W) 0.7; (yeast gene YPR194C) 0.4.
